The results in this text go back to patent US11186581B2, “2-(1,3-dimethyl-2,6-dioxo-1,2,3,6-tetrahydro-7H-purin-7-yl)-N-(6-(2-hydroxyphenyl)pyridazin-3-yl)acetamide as a Wnt pathway modulator” (Agency for Science, Technology and Research, priority 2017, dated 2021).

The assay has as its system HEK293-STF3A cells. Put plainly: STF3A assay (Wnt reporter luciferase). It is filed as cell-based. The note with it: Homo sapiens, 24 h, 1 day of treatment, read-out: IC50 activities on STF3A cells. The protocol:
HEK293-STF cell line was modified from Human embryonic kidney cell line HEK293 transfected with the STF reporter. HEK293-STF3 A cell line was further modified from HEK293-STF cell line to express Wnt3A. This cell line was used to identify compounds that regulate either early or late signalling components of the Wnt pathway. L-Wnt3 A (ATCC, #CRL-2647) cell line was used for providing Wnt3 A conditioned media. The three cell lines were grown in DMEM (Dulbecco's Modified Eagle Medium) with 10% FBS (fetal bovine serum) incubated in 37° C. with 5% CO2.
2×10^4 HEK293-STF3A cells in 75 μl culture media were seeded in each well of white 96 well plates (Greiner #655098) and incubated overnight at 37° C. 25 μl serially diluted compound was added to the cells to give final concentration of 50 μM to 1.5 nM. After 1 day of treatment, 100 μl of Steady-Glo® Luciferase Assay reagent (#E2520, Promega) was added to each well and incubated for 10 minutes at room temperature. Luminescence was measured using Tecan Safire2® plate reader.

Each structure is given as a SMILES string. Bounds are passed on as bounds.

For orientation: IC50 means the concentration that inhibits the measured activity by half.

In the case of `COc1ccccc1-c1ccc(NC(=O)Cn2cnc3c2c(=O)n(C)c(=O)n3C)nn1` [Compound 2, reference compound], the IC50 was greater than 10 µM.
